How the values were obtained:
C57BL/6 mice [1] = assay: CFA-induced inflammatory pain model (von Frey paw withdrawal threshold); details: mouse, in vivo
Description: In the Complete Freund's adjuvant (CFA)–induced inflammatory pain modelinflammation is induced by injecting 15 µL of CFA into the intraplantar surface of the right hind paw of C57BL/6 mice (weight 18–20 g, 6–8 weeks, both sex).^[ [38] ^] Mechanical paw withdrawal thresholds are then measured using manual von Frey (Stoelting Co) after 2 days of CFA injection.

C57BL/6 mice [2] = assay: Spared nerve injury (SNI) neuropathic pain model; details: mouse, in vivo, ip
Description: In the spared nerve injury (SNI) neuropathic pain model,^[ [39] ^] C57BL/6 mice (weight 18–20 g, 6–8 weeks, both sex) were anesthetized with 3% halothane. The thigh was incised parallel to the femur, and the muscles were bluntly separated to expose the sciatic nerve. The sciatic nerve is ligated with 6.0 silk sutures. […] The paw withdrawal threshold to mechanical stimuli is measured between 0 and 180 min after drug administration.

## CN1CC[C@]23c4c5ccc(O)c4O[C@H]2[C@@H](O)C=C[C@H]3[C@H]1C5 [morphine]
C57BL/6 mice [1]
  duration of anti-allodynic effect, CFA model: 2 h
C57BL/6 mice [2]
  mechanical allodynia induced by SNI compared with the saline group: significantly decreased

Reference: PMC11558128 (Advanced Science, 2024)
